Patent US20230013823A1, “INHIBITORS OF HUMAN IMMUNODEFICIENCY VIRUS REPLICATION” (VIV HEALTHCARE UK (No. 5) LIMITED, priority 2019, published 2023)

How the values were obtained:
[1] = Compound cytotoxicity, XTT-based colorimetric assay; type: cell-based; conditions: human; uninfected MT2 cells, day 4, XTT
Procedure: Compound cytotoxicity and the corresponding CC50 values were determined using the same protocol as described in the antiviral assay except that uninfected cells were used. Cytotoxicity was assessed on day 4 in uninfected MT2 cells by using an XTT (2,3-bis[2-Methoxy-4-nitro-5-sulfophenyl]-2H-tetrazolium-5-carboxyanilide inner salt)-based colorimetric assay (Sigma-Aldrich, St Louis, Mo.).

[2] = test system: recombinant NL4-3 virus (Renilla luciferase in nef); experiment: HIV cell culture assay (antiviral activity, luciferase readout in MT-2 cells); type: cell-based; conditions: Renilla, NL43
Procedure: HIV cell culture assay—MT=2 cells, 293T cells and the proviral DNA clone of NL4-3 virus were obtained from the NIH AIDS Research and Reference Reagent Program. MT=2 cells were propagated in RPMI 1640 media supplemented with 10% heat inactivated fetal bovine serum (FBS), […] penicillin G and up to 100 units/mL streptomycin. The 293T cells were propagated in DMEM media supplemented with 10% heat inactivated FBS, […] penicillin G and […] streptomycin. A recombinant NL4-3 proviral clone, in which a section of the nef gene was replaced with the Renilla luciferase gene, was used to make the reference virus used in these studies. The recombinant virus was prepared through transfection of the recombinant NL4-3 proviral clone into 293T cells using Transit-293 Transfection Reagent from Mirus Bio LLC (Madison, Wis.). Supernatent was harvested after 2-3 days and the amount of virus present was titered in MT=2 cells using luciferase enzyme activity as a marker by measuring luciferase enzyme activity. Luciferase was quantitated using the EnduRen Live Cell Substrate from Promega (Madison, Wis.). Antiviral activities of compounds toward the recombinant virus were quantified by measuring luciferase activity in MT=2 cells infected for 4-5 days with the recombinant virus in the presence of serial dilutions of the compound.
The 50% effective concentration (EC50) was calculated by using the exponential form of the median effect equation where (Fa)=1/[1+(ED50/drug conc.)m] (Johnson V A, Byington R T. Infectivity Assay. In Techniques in HIV Research. ed. Aldovini A, Walker B D. 71-76. New York: Stockton Press. 1990). The 50% inhibitory concentration (EC50) was calculated by using the exponential form of the median effect equation where percent inhibition=1/[1+(EC50/drug concentration)m], where m is a parameter that reflects the slope of the concentration-response curve.

SMILES	CC50 at 4 days [1] [nM]	EC50 [2] [nM]
COc1nc(C)cc(-c2ccc3c(=O)n(-c4ccc(Cl)c5c(NS(C)(=O)=O)nn(C)c45)c([C@H](Cc4cc(F)cc(F)c4)NC(=O)Cn4nc(C(F)F)c5c4C(F)(F)[C@@H]4C[C@H]54)nc3c2)n1 (atropisomer, axis not shown; (P)) [Example 16, N—((S)-1-((3P)-3-(4-chloro-1-methyl-3-(methylsulfonamido)-1H-indazol-7-yl)-7-(2-methoxy-6-methylpyrimidin-4-yl)-4-oxo-3,4-dihydroquinazolin-2-yl)-2-(3,5-difluorophenyl)ethyl)-2-((3bS,4aR)-3-(difluoromethyl)-5,5-difluoro-3b,4,4a,5-tetrahydro-1H-cyclopropa[3,4]cyclopenta[1,2-c]pyrazol-1-yl)acetamide]	> 500	0.11
Cn1nc(NS(C)(=O)=O)c2c(Cl)ccc(-n3c([C@H](Cc4cc(F)cc(F)c4)NC(=O)Cn4nc(C(F)F)c5c4C(F)(F)[C@@H]4C[C@H]54)nc4cc(-c5cncc(C(F)F)c5)ccc4c3=O)c21 (atropisomer, axis not shown; (P)) [Example 17, N—((S)-1-((3P)-3-(4-chloro-1-methyl-3-(methylsulfonamido)-1H-indazol-7-yl)-7-(5-(difluoromethyl)pyridin-3-yl)-4-oxo-3,4-dihydroquinazolin-2-yl)-2-(3,5-difluorophenyl)ethyl)-2-((3bS,4aR)-3-(difluoromethyl)-5,5-difluoro-3b,4,4a,5-tetrahydro-1H-cyclopropa[3,4]cyclopenta[1,2-c]pyrazol-1-yl)acetamide]	> 500	0.078
Cn1nc(NS(C)(=O)=O)c2c(Cl)ccc(-n3c([C@H](Cc4cc(F)cc(F)c4)NC(=O)Cn4nc(C(F)F)c5c4C(F)(F)[C@@H]4C[C@H]54)nc4cc(-c5cccc(C(F)F)c5F)ccc4c3=O)c21 (atropisomer, axis not shown; (P)) [Example 18, N—((S)-1-((3P)-3-(4-chloro-1-methyl-3-(methylsulfonamido)-1H-indazol-7-yl)-7-(3-(difluoromethyl)-2-fluorophenyl)-4-oxo-3,4-dihydroquinazolin-2-yl)-2-(3,5-difluorophenyl)ethyl)-2-((3bS,4aR)-3-(difluoromethyl)-5,5-difluoro-3b,4,4a,5-tetrahydro-1H-cyclopropa[3,4]cyclopenta[1,2-c]pyrazol-1-yl)acetamide]	> 500	0.54
COCc1ccccc1-c1ccc2c(=O)n(-c3ccc(Cl)c4c(NS(C)(=O)=O)nn(C)c34)c([C@H](Cc3cc(F)cc(F)c3)NC(=O)Cn3nc(C(F)F)c4c3C(F)(F)[C@@H]3C[C@H]43)nc2c1 (atropisomer, axis not shown; (P)) [Example 19, N—((S)-1-((3P)-3-(4-chloro-1-methyl-3-(methylsulfonamido)-1H-indazol-7-yl)-7-(2-(methoxymethyl)phenyl)-4-oxo-3,4-dihydroquinazolin-2-yl)-2-(3,5-difluorophenyl)ethyl)-2-((3bS,4aR)-3-(difluoromethyl)-5,5-difluoro-3b,4,4a,5-tetrahydro-1H-cyclopropa[3,4]cyclopenta[1,2-c]pyrazol-1-yl)acetamide]	> 500	0.16
Cn1nccc1-c1ccc2c(=O)n(-c3ccc(Cl)c4c(NS(C)(=O)=O)nn(C)c34)c([C@H](Cc3cc(F)cc(F)c3)NC(=O)Cn3nc(C(F)F)c4c3C(F)(F)[C@@H]3C[C@H]43)nc2c1 (atropisomer, axis not shown; (P)) [Example 20, N—((S)-1-((3P)-3-(4-chloro-1-methyl-3-(methylsulfonamido)-1H-indazol-7-yl)-7-(1-methyl-1H-pyrazol-5-yl)-4-oxo-3,4-dihydroquinazolin-2-yl)-2-(3,5-difluorophenyl)ethyl)-2-((3bS,4aR)-3-(difluoromethyl)-5,5-difluoro-3b,4,4a,5-tetrahydro-1H-cyclopropa[3,4]cyclopenta[1,2-c]pyrazol-1-yl)acetamide]	> 500	0.056
Cn1nc(NS(C)(=O)=O)c2c(Cl)ccc(-n3c([C@H](Cc4cc(F)cc(F)c4)NC(=O)Cn4nc(C(F)F)c5c4C(F)(F)[C@@H]4C[C@H]54)nc4cc(-c5nc(C(F)(F)F)ccc5F)ccc4c3=O)c21 (atropisomer, axis not shown; (P)) [Example 21, N—((S)-1-((3P)-3-(4-chloro-1-methyl-3-(methylsulfonamido)-1H-indazol-7-yl)-7-(3-fluoro-6-(trifluoromethyl)pyridin-2-yl)-4-oxo-3,4-dihydroquinazolin-2-yl)-2-(3,5-difluorophenyl)ethyl)-2-((3bS,4aR)-3-(difluoromethyl)-5,5-difluoro-3b,4,4a,5-tetrahydro-1H-cyclopropa[3,4]cyclopenta[1,2-c]pyrazol-1-yl)acetamide]	> 100	0.15
Cn1nc(NS(C)(=O)=O)c2c(Cl)ccc(-n3c([C@H](Cc4cc(F)cc(F)c4)NC(=O)Cn4nc(C(F)F)c5c4C(F)(F)[C@@H]4C[C@H]54)nc4cc(-c5cncc(C(F)(F)F)n5)ccc4c3=O)c21 (atropisomer, axis not shown; (P)) [Example 22, N—((S)-1-((3P)-3-(4-chloro-1-methyl-3-(methylsulfonamido)-1H-indazol-7-yl)-4-oxo-7-(6-(trifluoromethyl)pyrazin-2-yl)-3,4-dihydroquinazolin-2-yl)-2-(3,5-difluorophenyl)ethyl)-2-((3bS,4aR)-3-(difluoromethyl)-5,5-difluoro-3b,4,4a,5-tetrahydro-1H-cyclopropa[3,4]cyclopenta[1,2-c]pyrazol-1-yl)acetamide]	> 100	0.06
Cn1nc(NS(C)(=O)=O)c2c(Cl)ccc(-n3c([C@H](Cc4cc(F)cc(F)c4)NC(=O)Cn4nc(C(F)F)c5c4C(F)(F)[C@@H]4C[C@H]54)nc4cc(-c5nccnc5C(F)(F)F)ccc4c3=O)c21 (atropisomer, axis not shown; (P)) [Example 23, N—((S)-1-((3P)-3-(4-chloro-1-methyl-3-(methylsulfonamido)-1H-indazol-7-yl)-4-oxo-7-(3-(trifluoromethyl)pyrazin-2-yl)-3,4-dihydroquinazolin-2-yl)-2-(3,5-difluorophenyl)ethyl)-2-((3bS,4aR)-3-(difluoromethyl)-5,5-difluoro-3b,4,4a,5-tetrahydro-1H-cyclopropa[3,4]cyclopenta[1,2-c]pyrazol-1-yl)acetamide]	> 100	0.071
Cn1nc(NS(C)(=O)=O)c2c(Cl)ccc(-n3c([C@H](Cc4cc(F)cc(F)c4)NC(=O)Cn4nc(C(F)F)c5c4C(F)(F)[C@@H]4C[C@H]54)nc4cc(-c5ncc(F)cn5)ccc4c3=O)c21 (atropisomer, axis not shown; (P)) [Example 24, N—((S)-1-((3P)-3-(4-chloro-1-methyl-3-(methylsulfonamido)-1H-indazol-7-yl)-7-(5-fluoropyrimidin-2-yl)-4-oxo-3,4-dihydroquinazolin-2-yl)-2-(3,5-difluorophenyl)ethyl)-2-((3bS,4aR)-3-(difluoromethyl)-5,5-difluoro-3b,4,4a,5-tetrahydro-1H-cyclopropa[3,4]cyclopenta[1,2-c]pyrazol-1-yl)acetamide]	> 100	0.045
Cn1nc(NS(C)(=O)=O)c2c(Cl)ccc(-n3c([C@H](Cc4cc(F)cc(F)c4)NC(=O)Cn4nc(C(F)F)c5c4C(F)(F)[C@@H]4C[C@H]54)nc4cc(-c5cc(C(F)(F)F)ncn5)ccc4c3=O)c21 (atropisomer, axis not shown; (P)) [Example 25, N—((S)-1-((3P)-3-(4-chloro-1-methyl-3-(methylsulfonamido)-1H-indazol-7-yl)-4-oxo-7-(6-(trifluoromethyl)pyrimidin-4-yl)-3,4-dihydroquinazolin-2-yl)-2-(3,5-difluorophenyl)ethyl)-2-((3bS,4aR)-3-(difluoromethyl)-5,5-difluoro-3b,4,4a,5-tetrahydro-1H-cyclopropa[3,4]cyclopenta[1,2-c]pyrazol-1-yl)acetamide]	> 100	0.083
Cc1cc(-c2ccc3c(=O)n(-c4ccc(Cl)c5c(NS(C)(=O)=O)nn(C)c45)c([C@H](Cc4cc(F)cc(F)c4)NC(=O)Cn4nc(C(F)F)c5c4C(F)(F)[C@@H]4C[C@H]54)nc3c2)nc(C(F)(F)F)n1 (atropisomer, axis not shown; (P)) [Example 26, N—((S)-1-((3P)-3-(4-chloro-1-methyl-3-(methylsulfonamido)-1H-indazol-7-yl)-7-(6-methyl-2-(trifluoromethyl)pyrimidin-4-yl)-4-oxo-3,4-dihydroquinazolin-2-yl)-2-(3,5-difluorophenyl)ethyl)-2-((3bS,4aR)-3-(difluoromethyl)-5,5-difluoro-3b,4,4a,5-tetrahydro-1H-cyclopropa[3,4]cyclopenta[1,2-c]pyrazol-1-yl)acetamide]	> 100	0.087
